Where “and” joins values, the source holds several entries; their conditions need not be identical. Equal values may be shown once.
Tests used:
[1] = tested on: patients with HER2/neu+ breast cancer; details: clinical vaccines in HER2/neu+ breast cancer; cited from earlier work
CD8 T lymphocytes = test: HLA-A2:Ig dimer staining with control peptide-loaded dimers; format: cell-based, human; details: almost 2000 peripheral blood samples from about 200-300 patients

IISAVVGIL [GP2]
safety and stimulation of antigen-specific immunity [1]: safe and effective in stimulating antigen-specific immunity

NH2-RIAWARTEL-COOH (H-RIAWARTEL-OH) [E37]
background binding value of negative control dimers (CD8 T lymphocytes): 03% and 0.25-0.34%

From patent publication US20160258951A1, “METHODS OF MONITORING IMMUNE RESPONSES” (THE HENRY M. JACKSON FOUNDATION FOR THE ADVANCEMENT OF …, priority 2013, published 2016)
